Reference: US20040265265A1, “Odor control composition and process” (H&S CHEMICAL COMPANY, INC., priority 2001, published 2004)

Experiments:
[1] = stability of solutions as a function of pH; type: physicochemical; conditions: below a pH of 6
Excerpt: As is discussed above the pH range for CHT and CH-BENZ solutions for use in this invention can be from about 6- 14. […] While the solutions of this invention are effective above a pH of 10.0, solutions having a pH of 10.0 can only be used for industrial applications, due to their caustic nature.
This stability is important in domestic applications of this invention where long shelf life is very desirable.

[2] = limit of solubility in water; conditions: at room temperature in water

SMILES	stability in acidic medium [1]	limit of solubility [2]
O=C([O-])c1ccc(S(=O)(=O)NCl)cc1.[Na+] [CH-BENZ, N-Chloro-4-Carboxybenzenesulfonamide sodium salt]	tend to decompose	about 20%
Cc1ccc(S(=O)(=O)[N-]Cl)cc1.[Na+] [CHT, Chloramine-T]	tend to decompose	about 15%
